Data: patent US20230351587A1, “METHODS AND SYSTEMS FOR PREDICTING NEURODEGENERATIVE DISEASE STATE” (New York Stem Cell Foundation, Inc., priority 2020, published 2023)

System: healthy, LRRK2, and sporadic PD cells
Assay: Relative distance between treated cell groups and 0.16% DMSO control (morphological profiles)
Format: cell-based, human
Details: vs 0.16% DMSO; tile embeddings, single cell embeddings and feature vector models; three increasing doses; FIGS. 13A-13C
Method: In this example, the same automated platform as described above in Examples 1 and 2 was implemented to morphologically profile large collections of cells that were treated using any of a number of perturbations. Example perturbations include bafilomycin, carbonyl cyanide m-chlorophenyl hydrazone (CCCP), MG312, rotenone, valinomycin as well as control groups (untreated and 0.16% DMSO). Specifically, healthy or PD cells of known subtype (e.g., LRKK2 subtype or sporadic subtype) were cultured in vitro and treated with varying doses of the perturbations. For example, for bafilomycin, treatments included 15.63 nM, 31.25 nM, and 62.5 nM bafilomycin. For CCCP, the treatments included 390.5 nM, 781 nM, and 1562 nM. For MG312, the treatments included 234.38 nM, 468.75 nM, and 937.5 nM. For rotenone, the treatments included 7.81 nM, 15.63 nM, and 31.25 nM. For valinomycin, the treatments included 3.91 nM, 7.81 nM, and 15.63 nM.
Following in vitro treatment of healthy cells and PD subtype cells using the aforementioned concentrations of perturbagens, the cells were imaged using the automated imaging platform and subsequently analyzed using predictive models. In particular, three predictive models were implemented: 1) predictive model including tile embeddings, 2) predictive model including single cell embeddings, and 3) predictive model including extracted features (e.g., CellProfiler features). […]

CO/C1=C\C(C)=C\[C@@H](C)[C@@H](O)[C@@H](C)C/C(C)=C/C=C/[C@H](OC)[C@@H]([C@@H](C)[C@@H](O)[C@H](C)[C@@]2(O)C[C@@H](O)[C@H](C)[C@@H](C(C)C)O2)OC1=O [Bafilomycin, bafilomycin]
relative distance between treated cell groups in comparison to controls: increase in distance in response to increasing dose
